From patent US7550135B2, “Composition for external application” (Kao Corporation, priority 2001, dated 2009)

Assay: Miscibility and mixing stability in formulations
Assay type: physicochemical

miscibility and mixing stability (O/W cream of Example 2, 3.5%): excellent | miscibility and mixing stability (hair liquid composition of Example 4, 1.0%): excellent | miscibility and mixing stability (night cream of Example 5, 10.0%): excellent | miscibility and mixing stability (shampoo of Example 3, 2.0%): excellent | miscibility and mixing stability (skin lotion of Example 1, 1.0%): excellent | miscibility and mixing stability (sunscreen emulsion of Example 6, 3.0%): excellent
Structure (SMILES): CC(CC(=O)NCCOCCOCCNC(=O)CC(C)CC(C)(C)C)CC(C)(C)C (stereo not drawn) [Compound (K)]
